Assay results taken from paper PMC7400135, “3-(5-Nitrofuran-2-yl)prop-2-en-1-one Derivatives, with Potent Antituberculosis Activity, Inhibit A Novel Therapeutic Target, Arylamine N-acetyltransferase, in Mycobacteria” (Antibiotics, 2020).
≈ marks a conversion by molar mass, not a printed value. Where two headings read alike, the source gives them in different places. Marks after values point to notes of the source that are not given here.

Assays:
[1] = tested on: S. aureus (ATCC 25923); experiment: HT-SPOTi growth inhibition (MIC), S. aureus; type: cell-based, Staphylococcus aureus; conditions: 37 °C 16 h; for MIC: Staphylococcus aureus, ATCC25923, LB agar; for MIC Staphylococcus aureus: LB agar
[2] = tested on: M. bovis BCG (ATCC 35734); experiment: microbe, parasite or virus in culture; type: cell-based; conditions: Mycobacterium tuberculosis variant bovis BCG, 336 h, read-out: MIC Mycobacterium bovis BCG
[3] = tested on: E. coli (NCTC 10538); experiment: HT-SPOTi growth inhibition (MIC), E. coli; type: cell-based, Escherichia coli; conditions: 37 °C 16 h; for MIC: Escherichia coli, NCTC10538, LB agar; for MIC Escherichia coli: LB agar
[4] = tested on: M. aurum (NCTC 10437); experiment: HT-SPOTi growth inhibition (MIC), M. aurum; type: cell-based; conditions: Mycolicibacterium aurum, NCTC10437, 120 h; HT-SPOTi agar assay, 35 °C 5 days; read-out: MIC Mycobacterium aurum
[5] = tested on: murine macrophage RAW 264.7 cell line; conditions: resazurin assay, 48 h incubation
[6] = tested on: M. bovis BCG infected in THP-1 macrophages; experiment: microbe, parasite or virus in culture; type: cell-based, Mycobacterium bovis BCG; conditions: for ex vivo MIC as multiple of MIC: M. bovis BCG in THP-1 macrophages; for MIC: Mycobacterium tuberculosis variant bovis BCG, BCG, 48 h, read-out: ex vivo MIC
[7] = tested on: human monocyte THP-1 cell line; conditions: resazurin assay, 48 h incubation
[8] = target: recombinant Mycobacterium marinum N-acetyltransferase (MMNAT) (Mycobacterium marinum, UniProt B2HIZ6); experiment: Inhibition of recombinant MMNAT (DTNB assay); type: biochemical
recombinant Mycobacterium marinum N-acetyltransferase (MMNAT), sequence (B2HIZ6 entry or part of it): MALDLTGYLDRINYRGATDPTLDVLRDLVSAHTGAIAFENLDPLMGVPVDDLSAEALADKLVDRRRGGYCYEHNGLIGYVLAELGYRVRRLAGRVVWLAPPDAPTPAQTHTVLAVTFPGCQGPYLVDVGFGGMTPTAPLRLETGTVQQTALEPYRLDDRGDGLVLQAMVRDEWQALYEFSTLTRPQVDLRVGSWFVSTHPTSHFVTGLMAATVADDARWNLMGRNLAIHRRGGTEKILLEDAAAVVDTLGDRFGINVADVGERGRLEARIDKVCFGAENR

[9] = tested on: M. tuberculosis H37Rv (ATCC 25618); experiment: HT-SPOTi growth inhibition (MIC), M. tuberculosis H37Rv; type: cell-based; conditions: Mycobacterium tuberculosis; HT-SPOTi agar assay; read-out: MIC Mtb H37Rv
[10] = tested on: M. aurum (NCTC 10437); set-up: method as in Gupta and Bhakta, 2012; conditions: ref Gupta and Bhakta, 2012; cited from earlier work
[11] = tested on: M. bovis BCG (ATCC 35734); conditions: ref Gupta and Bhakta, 2012; cited from earlier work
[12] = hydralazine 450 µM, acetyl CoA 400 µM, extrapolated from linear regression, read-out: IC50 MMNAT
[13] = value in brackets, same IC50 in mg/L, read-out: IC50 MMNAT

SMILES | MIC [1] | MIC [2] | MIC [3] | MIC [4] | GIC RAW 264.7 Cell Line [5] | ex vivo MIC as multiple of MIC [6] | MIC [6] | MIC Staphylococcus aureus [1] | GIC THP-1 Cell Line [7] | IC50 [8, 12] | IC50 [8, 13] | MIC [9] | MIC Escherichia coli [3] | MIC Mycobacterium aurum [10] | MIC Mycobacterium bovis BCG [11] | IC50 [8]
CC1(C)S[C@@H]2[C@H](NC(=O)[C@H](N)c3ccccc3)C(=O)N2[C@H]1C(=O)O [Ampicillin, reference compound] | 0.125 µg/mL (≈ 0.358 µM) | > 500 µg/mL | 2 µg/mL (≈ 5.72 µM) | – | – | – | – | – | – | – | – | – | – | – | – | –
O=C(/C=C/c1ccc([N+](=O)[O-])o1)c1ccc(N2CCOCC2)cc1 [Compound 1] | > 500 µg/mL | 0.06 µg/mL (≈ 0.183 µM) | > 500 µg/mL | > 500 µg/mL | 125 mg/L | 4 × MIC | 0.24 µg/mL (≈ 0.731 µM) | inactive | 62.5 mg/L | 207 nM | 207 nM | 0.244 µg/mL (≈ 0.743 µM) | inactive | – | – | –
O=C(/C=C/c1ccc([N+](=O)[O-])o1)c1ccc(N2CCCCC2)cc1 [Compound 2] | > 500 µg/mL | 0.0075 µg/mL (≈ 0.023 µM) | > 500 µg/mL | > 500 µg/mL | 125 mg/L | – | – | inactive | 62.5 mg/L | 269 nM | 270 nM | 0.031 µg/mL (≈ 0.095 µM) | inactive | – | – | –
CCN(CC)c1ccc(C(=O)/C=C/c2ccc([N+](=O)[O-])o2)cc1 [Compound 3] | 62.5 µg/mL (≈ 199 µM) | 0.03 µg/mL (≈ 0.0954 µM) | 250 µg/mL (≈ 795 µM) | > 500 µg/mL | 31.25 mg/L | – | – | – | 15.6 mg/L | 134 nM | 134 nM | 0.488 µg/mL (≈ 1.55 µM) | – | – | – | –
CC[C@@H](CO)NCCN[C@@H](CC)CO [Ethambutol] | – | – | – | – | – | – | – | – | – | > 1000 nM | – | 2 µg/mL (≈ 9.79 µM) | – | 0.10 ^# mg/L | 2.00 ^# mg/L | –
NNC(=O)c1ccncc1 [Isoniazid, reference compound] | – | 0.625 µg/mL (≈ 4.56 µM) | – | 1.25 µg/mL (≈ 9.11 µM) | NA^a (not active until 500 mg/L concentration) | 2 × MIC | 1.25 µg/mL (≈ 9.11 µM) | – | NA^a (not active until 500 mg/L concentration) | > 1000 nM | – | 0.8 µg/mL (≈ 5.83 µM) | – | – | – | –
CN(Cc1cnc2nc(N)nc(N)c2n1)c1ccc(C(=O)N[C@@H](CCC(=O)O)C(=O)O)cc1 [Methotrexate, reference compound] | – | 500 µg/mL (≈ 1100 µM) | – | – | 0.122 mg/L | – | – | – | 0.975 mg/L | – | – | > 500 µg/mL | – | – | – | –
O=[N+]([O-])c1cn2c(n1)OC[C@@H](OCc1ccc(OC(F)(F)F)cc1)C2 [Pretomanid] | – | – | – | – | – | – | – | – | – | > 1000 nM | – | 0.061 µg/mL (≈ 0.17 µM) | – | – | – | –
CO[C@H]1/C=C/O[C@@]2(C)Oc3c(C)c(O)c4c(O)c(c(/C=N/N5CCN(C)CC5)c(O)c4c3C2=O)NC(=O)/C(C)=C\C=C\[C@H](C)[C@H](O)[C@@H](C)[C@@H](O)[C@@H](C)[C@H](OC(C)=O)[C@@H]1C [Rifampicin] | – | – | – | – | – | – | – | – | – | – | – | 0.125 µg/mL (≈ 0.152 µM) | – | 0.40 ^# mg/L | 0.50 ^# mg/L | > 1000 nM
